Measured values as given in patent US12065445B2, “CDK2 inhibitors and methods of using the same” (Cedilla Therapeutics, Inc., priority 2021, dated 2024).

How the values were obtained:
[1] = tested on: Kuramochi cells labeled with mApple-H2B; experiment: IncuCyte Cell Proliferation Assay; type: cell-based
Procedure, shortened: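 Cells imaged at 0 and 72 h after compound treatment (10 points, ½ log dilution, 20 μM top), with fluorescent nuclei counted. Fold change in count was normalized to DMSO wells and fitted to dose-response curves to give GI50.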

[2] = tested on: Kuramochi cells; experiment: BrdU Cell Proliferation Assay; type: cell-based; settings: read-out: BrdU - KURAMOCHI.1: IC50
Procedure, shortened: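 Kuramochi cells were seeded at 2,000 cells/well, adhered overnight, then treated with a 10-point, 3-fold compound dilution series for 4 days. Proliferation was measured by a 1-hour BrdU pulse, anti-BrdU peroxidase colorimetric ELISA and 450 nm absorbance. Values were background-subtracted and normalized to DMSO wells.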

Compound	IC50 ([1]; 72 h) [µM]	IC50 [2] [µM]	IC50 ([1]; 72 hours) [µM]
CO[C@H]1COCC[C@H]1NC(=O)[C@H]1CN(C(=O)c2cnn(Cc3ccccc3)c2)CC12CN(C(=O)[C@H]1CC1(C)C)C2 [I-134B]	> 20	> 10	
C[C@@H](OCC1CCCCC1)[C@H](NC(=O)[C@@H]1CN(C(=O)c2cnn(Cc3ccccc3)c2)CC12CN(C(=O)[C@H]1CC1(C)C)C2)C(=O)N1CCCCC1 [I-194A, (S)-6-(1-benzyl-1H-pyrazole-4-carbonyl)-N-((2S,3R)-3-(cyclohexylmethoxy)-1-oxo-1-(piperidin-1-yl)butan-2-yl)-2-((S)-2,2-dimethylcyclopropane-1-carbonyl)-2,6-diazaspiro[3.4]octane-8-carboxamide]	≤ 0.5	≤ 0.5	
C[C@@H](OCC1CCCCC1)[C@H](NC(=O)[C@@H]1CN(C(=O)c2cn[nH]c2)CC12CN(C(=O)[C@H]1CC1(C)C)C2)C(=O)N1CCC(F)(F)CC1 [I-154A]	0.5 to 5	0.5 to 5	
CC1(C)C[C@@H]1C(=O)N1CC2(CN(C(=O)c3cnn(Cc4ccccc4)c3)C[C@H]2C(=O)N[C@H]2C[C@@H]2c2cccc(Cl)c2)C1 [I-140A]	5 to 20	> 10	
CNC(=O)[C@@H](NC(=O)[C@@H]1CN(C(=O)c2cncs2)CC12CN(C(=O)[C@H]1CC1(C)C)C2)[C@@H](C)OCC12CCC(CC1)CC2 [I-289]	≤ 0.5	≤ 0.5	
CNC(=O)[C@@H](NC(=O)[C@@H]1CN(C(=O)c2cncs2)CC12CN(C(=O)[C@H]1CC1(C)C)C2)[C@@H](C)OCC1CC2CCC1O2 (stereo partly shown) [I-462]	> 20	> 10	
CNC(=O)[C@@H](NC(=O)[C@@H]1CN(C(=O)c2cnn(Cc3ccccc3)c2)CC12CN(C(=O)N(C)C(C)C)C2)[C@@H](C)OCC1CCCCC1 [I-274, (S)-6-(1-benzyl-1H-pyrazole-4-carbonyl)-N8-((2S,3R)-3-(cyclohexylmethoxy)-1-(methylamino)-1-oxobutan-2-yl)-N2-isopropyl-N2-methyl-2,6-diazaspiro[3.4]octane-2,8-dicarboxamide]	5 to 20	5 to 10	
CNC(=O)[C@@H](NC(=O)[C@@H]1CN(C(=O)c2cncs2)CC12CN(C(=O)[C@H]1CC1(C)C)C2)[C@@H](C)OCC1CC2CCC1C2 (stereo partly shown) [I-465]	≤ 0.5	0.5 to 5	
COC[C@H]1CCCN(C(=O)[C@@H](NC(=O)[C@@H]2CN(C(=O)c3cncs3)CC23CN(C(=O)[C@H]2CC2(C)C)C3)[C@@H](C)O[C@H](C)C2CCCCC2)C1 [I-466]		0.5 to 5	0.5 to 5
CNC(=O)[C@@H](CO)NC(=O)C1CN(C(=O)c2cnn(Cc3ccccc3)c2)CC12CN(C(=O)[C@H]1CC1(C)C)C2 (stereo partly shown) [I-261]	> 20	> 10	
COC[C@H]1CCCN(C(=O)[C@@H](NC(=O)[C@@H]2CN(C(=O)c3cncs3)CC23CN(C(=O)[C@H]2CC2(C)C)C3)[C@@H](C)OCc2ccc(Cl)cc2F)C1 [I-317]	0.5 to 5	0.5 to 5	
COC[C@H]1CCCN(C(=O)[C@@H](NC(=O)[C@@H]2CN(C(=O)c3cncs3)CC23CN(C(=O)[C@H]2CC2(C)C)C3)[C@@H](C)OCc2ccccc2F)C1 [I-321]	0.5 to 5	0.5 to 5	
CC1(C)C[C@@H]1C(=O)N1CC2(CN(C(=O)c3cnn(Cc4ccccc4)c3)C[C@@H]2C(=O)N[C@H]2CCc3cc(Cl)ccc32)C1 [I-133B]	> 20	> 10	
CNC(=O)[C@@H](NC(=O)[C@@H]1CN(C(=O)c2cnn(Cc3ccccc3)c2)CC12CN(C(=O)C(C)C1CC1)C2)[C@@H](C)OCc1ccccc1 (stereo partly shown) [I-277]	> 20	> 10	
COC[C@@H]1CCCN(C(=O)[C@@H](NC(=O)C2CN(C(=O)c3cncs3)CC23CN(C(=O)[C@H]2CC2(C)C)C3)[C@@H](C)OCC2CCCCC2)C1 (stereo partly shown) [I-195]	≤ 0.5	≤ 0.5	
COC[C@H]1CCCN(C(=O)[C@@H](NC(=O)[C@@H]2CN(C(=O)c3cncs3)CC23CN(C(=O)[C@H]2CC2(C)C)C3)[C@@H](C)OCc2ccc(C(F)(F)F)cc2)C1 [I-319]	0.5 to 5	≤ 0.5	
C[C@@H](OCC1CCCCC1)[C@H](NC(=O)[C@@H]1CN(C(=O)c2cnn(Cc3ccccc3)c2)CC12CN(C(=O)[C@H]1CC1(C)C)C2)C(=O)N1CC(C)(C)C1 [I-153A]	≤ 0.5	≤ 0.5	
C[C@@H](OCC1CCCCC1)[C@H](NC(=O)[C@@H]1CN(C(=O)c2cncs2)CC12CN(C(=O)[C@H]1CC1(C)C)C2)C(=O)N1CCC(c2cnc[nH]2)CC1 [I-406]	0.5 to 5	0.5 to 5	
COC[C@H]1CCCN(C(=O)CNC(=O)[C@@H]2CN(C(=O)c3cncs3)CC23CN(C(=O)[C@H]2CC2(C)C)C3)C1 [I-323]	> 20	> 10	
C[C@@H](OCC1CCCCC1)[C@@H](CO)NC(=O)[C@@H]1CN(C(=O)c2cnn(Cc3ccccc3)c2)CC12CN(C(=O)[C@H]1CC1(C)C)C2 [I-135A]	0.5 to 5	0.5 to 5	
C[C@@H](OCC1CCCCC1)[C@H](NC(=O)[C@H]1CN(C(=O)c2cnn(Cc3ccccc3)c2)CC12CN(C(=O)[C@H]1CC1(C)C)C2)C(=O)N1CCOCC1 [I-152B]	5 to 20	> 10	
Cc1ccc(CNC(=O)[C@H]2CN(C(=O)c3cnn(Cc4ccccc4)c3)CC23CN(C(=O)[C@H]2CC2(C)C)C3)nn1 [I-381]	> 20	> 10	

Compound	IC50 ([1]; 72 h) [µM]	IC50 [2] [µM]	IC50 ([1]; 72 hours) [µM]
CNC(=O)[C@@H](NC(=O)[C@@H]1CN(C(=O)c2cnn(Cc3ccccc3)c2)CC12CN(C(=O)[C@H]1CC1(C)C)C2)[C@@H](C)SCc1ccccc1 [I-368]	5 to 20	> 10	
C[C@@H](OCc1ccccc1)[C@H](NC(=O)[C@@H]1CN(C(=O)c2cnn(Cc3ccccc3)c2)CC12CN(C(=O)[C@H]1CC1(C)C)C2)C(=O)N1CCC(F)(F)CC1 [I-280]	0.5 to 5	0.5 to 5	
CNC(=O)[C@@H](NC(=O)[C@@H]1CN(C(=O)c2cnn(Cc3ccccc3)c2)CC12CN(C(=O)[C@H]1CC1(C)C)C2)[C@@H](C)OCC1CCCCCC1 [I-166A]	≤ 0.5	≤ 0.5	
C[C@@H](OCC1CCCCC1)[C@H](NC(=O)[C@@H]1CN(C(=O)c2cnn(Cc3ccccc3)c2)CC12CN(C(=O)[C@H]1CC1(C)C)C2)C(=O)N1CC[C@@H]1CN [I-270]	5 to 20	> 10	
CNC(=O)[C@@H](NC(=O)[C@@H]1CN(C(=O)c2cnn(Cc3ccccc3)c2)CC12CN(C(=O)[C@H]1CC1(C)C)C2)[C@@H](C)OC[C@H]1CC[C@@H](O)CC1 [I-424]	> 20	> 10	
C[C@@H](OCC1CCCCC1)[C@H](NC(=O)C1CN(C(=O)c2cnn(Cc3ccccc3)c2)CC12CN(C(=O)[C@H]1CC1(C)C)C2)C(=O)N1CC2(CCC2)C1 (stereo partly shown) [I-107]	≤ 0.5	≤ 0.5	
CNC(=O)[C@@H](NC(=O)[C@@H]1CN(C(=O)c2cncs2)CC12CN(C(=O)[C@H]1CC1(C)C)C2)[C@@H](C)OC1CCCCC1 [I-290]	5 to 20	> 10	
CC1(C)C[C@@H]1C(=O)N1CC2(CN(C(=O)c3cnn(Cc4ccccc4)c3)C[C@H]2C(=O)NCc2ccc(O)nn2)C1 [I-400]	> 20	> 10	
C[C@@H](OCC1CCCCC1)[C@H](NC(=O)C1CN(C(=O)c2cnn(Cc3ccccc3)c2)CC12CN(C(=O)[C@H]1CC1(C)C)C2)C(=O)N1CCCCC1 (stereo partly shown) [I-194 mixture]	≤ 0.5	≤ 0.5	
C[C@@H](OCC1CCOCC1)[C@H](NC(=O)[C@@H]1CN(C(=O)c2cncs2)CC12CN(C(=O)[C@H]1CC1(C)C)C2)C(=O)N1CCC(F)(F)CC1 [I-288]	5 to 20	> 10	
CC(O[C@H](C)[C@H](NC(=O)[C@@H]1CN(C(=O)c2cncs2)CC12CN(C(=O)[C@H]1CC1(C)C)C2)C(=O)N1CCC(F)(F)CC1)C1CCC(F)(F)CC1 (stereo partly shown) [I-361]	0.5 to 5	0.5 to 5	
C[C@@H](OCC1(C(F)(F)F)CC1)[C@H](NC(=O)[C@@H]1CN(C(=O)c2cncs2)CC12CN(C(=O)[C@H]1CC1(C)C)C2)C(=O)N1CCC(F)(F)CC1 [I-287]	5 to 20	> 10	
CC1(C)C[C@@H]1C(=O)N1CC2(CN(C(=O)c3cnn(Cc4ccccc4)c3)C[C@H]2C(=O)NCc2ccc(C3CCCCC3)nn2)C1 [I-377]	> 20	> 10	
C[C@@H](OCC1CCCCC1)[C@H](NC(=O)[C@@H]1CN(C(=O)c2cncs2)CC12CN(C(=O)[C@H]1CC1(F)F)C2)C(=O)N1CCCCC1 [I-296]	0.5 to 5	0.5 to 5	
Cc1ccc(CNC(=O)[C@@H]2CN(C(=O)c3cnn(Cc4ccccc4)c3)CC23CN(C(=O)[C@H]2CC2(C)C)C3)cn1 [I-364]	5 to 20	> 10	
CNC(=O)[C@@H](NC(=O)[C@@H]1CN(Cc2cncs2)CC12CN(C(=O)[C@H]1CC1(C)C)C2)[C@@H](C)OCc1ccccc1 [I-51A]	5 to 20	5 to 10	
CNC(=O)[C@@H](NC(=O)[C@@H]1CN(C(=O)c2sc(C(C)C)nc2C)CC12CN(C(=O)[C@H]1CC1(C)C)C2)[C@@H](C)OCC1CCCCC1 [I-227A]	> 20	> 10	
C[C@@H](OCC1CCCCC1)[C@H](NC(=O)C1CN(C(=O)c2cncs2)CC12CN(C(=O)[C@H]1CC1(C)C)C2)C(=O)N1CCOCC1 (stereo partly shown) [I-138]	≤ 0.5	≤ 0.5	
CNC(=O)[C@@H](NC(=O)[C@@H]1CN(C(=O)c2sc(Cl)nc2C)CC12CN(C(=O)[C@H]1CC1(C)C)C2)[C@@H](C)OCC1CCCCC1 [I-208A]	≤ 0.5	≤ 0.5	
CNC(=O)[C@@H](NC(=O)[C@@H]1CN(C(=O)c2cnn(Cc3ccccc3)c2)CC12CN(C(=O)[C@H]1CC1(C)C)C2)[C@@H](C)OCc1cccc(O)c1 [I-262]	> 20	> 10	
CC1(C)C[C@@H]1C(=O)N1CC2(CN(C(=O)c3cncs3)C[C@H]2C(=O)N[C@@H](COCC2CCCCC2)C(=O)N2CCCCC2)C1 [I-286]	0.5 to 5	0.5 to 5	
CNC(=O)[C@@H](NC(=O)[C@@H]1CN(C(=O)c2cnc(COC(C)(C)C)s2)CC12CN(C(=O)[C@H]1CC1(C)C)C2)[C@@H](C)OCC1CCCCC1 [I-175A]	≤ 0.5	≤ 0.5	
